Molecular target: T1, human apelin receptor (Homo sapiens, UniProt P35414)
T1 construct: expressed in transfected cells
T1 sequence (P35414 1-380): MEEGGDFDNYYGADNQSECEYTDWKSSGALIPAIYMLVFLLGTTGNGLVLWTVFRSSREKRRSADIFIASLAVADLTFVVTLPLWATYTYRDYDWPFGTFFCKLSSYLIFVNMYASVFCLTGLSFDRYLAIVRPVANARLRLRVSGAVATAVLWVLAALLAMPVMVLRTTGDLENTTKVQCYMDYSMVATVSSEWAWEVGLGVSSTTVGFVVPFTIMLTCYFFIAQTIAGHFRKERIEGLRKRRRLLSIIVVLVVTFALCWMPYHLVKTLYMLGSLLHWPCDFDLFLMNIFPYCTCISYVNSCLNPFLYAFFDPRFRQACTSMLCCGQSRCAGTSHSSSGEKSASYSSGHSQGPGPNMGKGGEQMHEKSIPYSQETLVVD
Test: Determination of agonism on the human apelin receptor by a calcium fluorescence assay (FLIPR)
Assay type: cell-based
Conditions: HEK293 cells stably transfected with human apelin receptor and Giaq protein, Fluo-4 calcium fluorescence, read-out: EC50 (APJ agonism)
In short: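 Agonist EC50s come from peak intracellular calcium transients recorded by FLIPR Tetra, scaled to the 1 μM apelin-13 maximum per plate. Test system: HEK293 stably transfected with human apelin receptor plus Giaq, Fluo-4-loaded (4 μM, 1 h, 37 °C, pH 7.4 buffer with probenecid); ≥7 concentrations, triplicates.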

EC50 | Structure (SMILES)
2950 nM | CCC(CC)n1c(Cc2cscn2)nc2cc(C(=O)N[C@@H](CC(C)C)C(=O)O)ccc21 [Example 84, (S)-2-{[1-(1-Ethyl-propyl)-2-thiazol-4-ylmethyl-1H-benzoimidazole-5-carbonyl]-amino}-4-methyl-pentanoic acid]
7800 nM | CCC(CC)n1c(Cc2cscn2)nc2cc(C(=O)N[C@H](C(=O)O)[C@@H](C)CC)ccc21 [Example 85, (2S,3S)-2-{[1-(1-Ethyl-propyl)-2-thiazol-4-ylmethyl-1H-benzoimidazole-5-carbonyl]-amino}-3-methyl-pentanoic acid]
88 nM | CC(C)C[C@H](NC(=O)c1ccc2c(c1)nc(Cc1ccco1)n2C1CCCCC1C)C(=O)O (stereo partly drawn) [Example 86, (S)-2-{[2-Furan-2-ylmethyl-1-(2-methyl-cyclohexyl)-1H-benzoimidazole-5-carbonyl]-amino}-4-methyl-pentanoic acid]
882 nM | CC(C)C[C@H](NC(=O)c1ccc2c(c1)nc(Cc1cccs1)n2C1CCCCC1C(F)(F)F)C(=O)O (stereo partly drawn) [Example 87, (S)-4-Methyl-2-{[2-thiophen-2-ylmethyl-1-(2-trifluoromethyl-cyclohexyl)-1H-benzoimidazole-5-carbonyl]-amino}-pentanoic acid]
754 nM | CCC[C@H](NC(=O)c1ccc2c(c1)nc(Cc1cccs1)n2C1CCCCC1C(F)(F)F)C(=O)O (stereo partly drawn) [Example 88, (S)-2-{[2-Thiophen-2-ylmethyl-1-(2-trifluoromethyl-cyclohexyl)-1H-benzoimidazole-5-carbonyl]-amino}-pentanoic acid]
9330 nM | O=C(N[C@@H](Cc1ccccc1)C(=O)O)c1ccc2c(c1)nc(Cc1cccs1)n2C1CCCCC1C(F)(F)F (stereo partly drawn) [Example 89, (S)-3-Phenyl-2-{[2-thiophen-2-ylmethyl-1-(2-trifluoromethyl-cyclohexyl)-1H-benzoimidazole-5-carbonyl]-amino}-propionic acid]
472 nM | CC(C)C[C@H](NC(=O)c1ccc2c(c1)nc(Cc1cccs1)n2C1CCCC1C)C(=O)O (stereo partly drawn) [Example 90, (S)-4-Methyl-2-{[1-(2-methyl-cyclopentyl)-2-thiophen-2-ylmethyl-1H-benzoimidazole-5-carbonyl]-amino}-pentanoic acid]
137 nM | CCC[C@H](NC(=O)c1ccc2c(c1)nc(Cc1cccs1)n2[C@@H]1CCCC[C@H]1C)C(=O)O [Example 91, (S)-2-{[1-((1R,2R)-2-Methyl-cyclohexyl)-2-thiophen-2-ylmethyl-1H-benzoimidazole-5-carbonyl]-amino}-pentanoic acid]
< 41 nM | CC[C@H](C)[C@H](NC(=O)c1ccc2c(c1)nc(Cc1cccs1)n2[C@@H]1CCCC[C@H]1C)C(=O)O [Example 92, (2S,3S)-3-Methyl-2-{[1-((1R,2R)-2-methyl-cyclohexyl)-2-thiophen-2-ylmethyl-1H-benzoimidazole-5-carbonyl]-amino}-pentanoic acid]
291 nM | CCC1CCCCC1n1c(Cc2cccs2)nc2cc(C(=O)N[C@@H](CC(C)C)C(=O)O)ccc21 (stereo partly drawn) [Example 93, (S)-2-{[1-(2-Ethyl-cyclohexyl)-2-thiophen-2-ylmethyl-1H-benzoimidazole-5-carbonyl]-amino}-4-methyl-pentanoic acid]
781 nM | CCC[C@H](NC(=O)c1ccc2c(c1)nc(Cc1cccs1)n2C(CC)CC)C(=O)O [Example 94, (S)-2-{[1-(1-Ethyl-propyl)-2-thiophen-2-ylmethyl-1H-benzoimidazole-5-carbonyl]-amino}-pentanoic acid]
95 nM | CCC(CC)n1c(Cc2cccs2)nc2cc(C(=O)N[C@H](CC(=O)O)CC(C)C)ccc21 [Example 95, (S)-3-{[1-(1-Ethyl-propyl)-2-thiophen-2-ylmethyl-1H-benzoimidazole-5-carbonyl]-amino}-5-methyl-hexanoic acid]
< 41 nM | CCC(CC)n1c(Cc2ccco2)nc2cc(C(=O)N[C@H](CC(=O)O)CC(C)C)ccc21 [Example 96, (S)-3-{[1-(1-Ethyl-propyl)-2-furan-2-ylmethyl-1H-benzoimidazole-5-carbonyl]-amino}-5-methyl-hexanoic acid]
39000 nM | CC(C)C[C@@H](CC(=O)O)NC(=O)c1ccc2c(c1)nc(Cc1cccs1)n2CC1CCCCC1 [Example 97, (S)-3-[(1-Cyclohexylmethyl-2-thiophen-2-ylmethyl-1H-benzoimidazole-5-carbonyl)-amino]-5-methyl-hexanoic acid]
2190 nM | CCC(CC)n1c(Cc2cscn2)nc2cc(C(=O)N[C@H](CC(=O)O)CC(C)C)ccc21 [Example 98, (S)-3-{[1-(1-Ethyl-propyl)-2-thiazol-4-ylmethyl-1H-benzoimidazole-5-carbonyl]-amino}-5-methyl-hexanoic acid]

Continued, compound first:

Structure (SMILES) | EC50
CC(C)C[C@@H](CCC(=O)O)NC(=O)c1ccc2c(c1)nc(Cc1cccs1)n2[C@@H]1CCCC[C@H]1C [Example 70, (R)-6-Methyl-4-{[1-((1R,2R)-2-methyl-cyclohexyl)-2-thiophen-2-ylmethyl-1H-benzoimidazole-5-carbonyl]-amino}-heptanoic acid] | 179 nM
CCC(CC)n1c(Cc2cccs2)nc2cc(C(=O)N[C@H](CCC(=O)O)[C@@H](C)CC)ccc21 [Example 71, (4R,5S)-4-{[1-(1-Ethyl-propyl)-2-thiophen-2-ylmethyl-1H-benzoimidazole-5-carbonyl]-amino}-5-methyl-heptanoic acid] | 73 nM
CC[C@H](C)[C@@H](CCC(=O)O)NC(=O)c1ccc2c(c1)nc(Cc1cccs1)n2[C@@H]1CCCC[C@H]1C [Example 72, (4R,5S)-5-Methyl-4-{[1-((1R,2R)-2-methyl-cyclohexyl)-2-thiophen-2-ylmethyl-1H-benzoimidazole-5-carbonyl]-amino}-heptanoic acid] | 47 nM
CCC(CC)n1c(Cc2cccs2)nc2cc(C(=O)N[C@@H](CC3CCCCC3)[C@H](O)CC(=O)O)ccc21 [Example 73, (3R,4S)-5-Cyclohexyl-4-{[1-(1-ethyl-propyl)-2-thiophen-2-ylmethyl-1H-benzoimidazole-5-carbonyl]-amino}-3-hydroxy-pentanoic acid] | 65 nM
C[C@@H]1CCCC[C@H]1n1c(Cc2cccs2)nc2cc(C(=O)N[C@@H](CC3CCCCC3)[C@H](O)CC(=O)O)ccc21 [Example 74, (3R,4S)-5-Cyclohexyl-3-hydroxy-4-{[1-((1R,2R)-2-methyl-cyclohexyl)-2-thiophen-2-ylmethyl-1H-benzoimidazole-5-carbonyl]-amino}-pentanoic acid] | 140 nM
CCC(CC)n1c(Cc2cccs2)nc2cc(C(=O)N[C@@H](CC(C)C)[C@@H](O)CC(=O)O)ccc21 [Example 75, (3S,4S)-4-{[1-(1-Ethyl-propyl)-2-thiophen-2-ylmethyl-1H-benzoimidazole-5-carbonyl]-amino}-3-hydroxy-6-methyl-heptanoic acid] | 66 nM
CCC(CC)n1c(Cc2cccs2)nc2cc(C(=O)N[C@@H](CC(C)C)[C@H](O)CC(=O)O)ccc21 [Example 76, (3R,4S)-4-{[1-(1-Ethyl-propyl)-2-thiophen-2-ylmethyl-1H-benzoimidazole-5-carbonyl]-amino}-3-hydroxy-6-methyl-heptanoic acid] | 62 nM
CC(C)C[C@H](NC(=O)c1ccc2c(c1)nc(Cc1cccs1)n2[C@@H]1CCCC[C@H]1C)[C@H](O)CC(=O)O [Example 77, (3R,4S)-3-Hydroxy-6-methyl-4-{[1-((1R,2R)-2-methyl-cyclohexyl)-2-thiophen-2-ylmethyl-1H-benzoimidazole-5-carbonyl]-amino}-heptanoic acid] | 53 nM
CC(C)C[C@H](NC(=O)c1ccc2c(c1)nc(Cc1cccs1)n2[C@@H]1CCCC[C@H]1C)[C@@H](O)CC(=O)O [Example 78, (3S,4S)-3-Hydroxy-6-methyl-4-{[1-((1R,2R)-2-methyl-cyclohexyl)-2-thiophen-2-ylmethyl-1H-benzoimidazole-5-carbonyl]-amino}-heptanoic acid] | 101 nM
CCC(CC)n1c(Cc2cccs2)nc2cc(C(=O)N[C@@H](CC3CCCCC3)[C@@H](O)CC(=O)O)ccc21 [Example 79, (3S,4S)-5-Cyclohexyl-4-{[1-(1-ethyl-propyl)-2-thiophen-2-ylmethyl-1H-benzoimidazole-5-carbonyl]-amino}-3-hydroxy-pentanoic acid] | 80 nM
CCC(CC)n1c(CC2CCCO2)nc2cc(C(=O)N[C@@H](CC(C)C)C(=O)O)ccc21 (stereo partly drawn) [Example 80, (S)-2-{[1-(1-Ethyl-propyl)-2-(tetrahydro-furan-2-ylmethyl)-1H-benzoimidazole-5-carbonyl]-amino}-4-methyl-pentanoic acid] | 1670 nM
CCC(CC)n1c(Cc2ccco2)nc2cc(C(=O)N[C@@H](CC(C)C)C(=O)O)ccc21 [Example 81, (S)-2-{[1-(1-Ethyl-propyl)-2-furan-2-ylmethyl-1H-benzoimidazole-5-carbonyl]-amino}-4-methyl-pentanoic acid] | < 41 nM
CCC(CC)n1c(Cc2ccc(Cl)s2)nc2cc(C(=O)N[C@@H](CC(C)C)C(=O)O)ccc21 [Example 82, (S)-2-{[2-(5-Chloro-thiophen-2-ylmethyl)-1-(1-ethyl-propyl)-1H-benzoimidazole-5-carbonyl]-amino}-4-methyl-pentanoic acid] | 23300 nM
CC(C)C[C@H](NC(=O)c1ccc2c(c1)nc(Cc1cccs1)n2CC1CCCCC1)C(=O)O [Example 83, (S)-2-[(1-Cyclohexylmethyl-2-thiophen-2-ylmethyl-1H-benzoimidazole-5-carbonyl)-amino]-4-methyl-pentanoic acid] | 18200 nM

From patent publication US9156796B2, “Benzoimidazole-carboxylic acid amide derivatives as APJ receptor modulators” (SANOFI, priority 2013, dated 2015)
